Assay results from ChEMBL document CHEMBL4190268, “Design, synthesis and biological studies of a library of NK1-Receptor Ligands Based on a 5-arylthiosubstituted 2-amino-4,6-diaryl-3-cyano-4H-pyran core: Switch from antagonist to agonist effect by chemical modification” (Eur J Med Chem, 2017).
Activity calls are given as the source filed them. No cut-off for these calls is given here.

Assays:
Substance-P receptor [1] = molecular target: T1, Substance-P receptor (Homo sapiens, UniProt P25103); experiment: Antagonist activity at His6-tagged NK1 receptor (unknown origin) expressed in CHO cells assessed as inhibition of substance-P-induced IP1 accumulation at 5 x 10^-5M preincubated for 10 mins followed by substance-P addition measured after 30 mins by HTRF-FRET assay relative to control; type: functional, cell-based
A549 [2] = experiment: cells; details: Homo sapiens, A549, 48 h
Substance-P receptor [3] = molecular target: T1, Substance-P receptor; experiment: Antagonist activity at His6-tagged NK1 receptor (unknown origin) expressed in CHO cells assessed as inhibition of substance-P-induced IP1 accumulation at 10^-5 M preincubated for 10 mins followed by substance-P addition measured after 30 mins by HTRF-FRET assay relative to control; type: functional, cell-based
Substance-P receptor [4] = molecular target: T1, Substance-P receptor; experiment: Partial agonist activity at His6-tagged NK1 receptor (unknown origin) expressed in CHO cells assessed as IP1 accumulation at 10^-5 M measured after 30 mins by HTRF-FRET assay relative to control; type: functional, cell-based
Substance-P receptor [5] = molecular target: T1, Substance-P receptor; experiment: Partial agonist activity at His6-tagged NK1 receptor (unknown origin) expressed in CHO cells assessed as IP1 accumulation at 5 x 10^-5M measured after 30 mins by HTRF-FRET assay relative to control; type: functional, cell-based
MRC5 [6] = experiment: cells; details: Homo sapiens, MRC5, 48 h
Description: Cytotoxicity against human MRC5 cells after 48 hrs by MTT assay

A549 [7] = experiment: Growth inhibition of human A549 cells at 10^3 uM after 48 hrs by MTT assay relative to control; type: functional
[8] = Cytotoxicity against human MRC5 cells assessed as cell growth inhibition at 10^3 uM after 48 hrs by MTT assay relative to control; type: cell-based; details: read-out: GI
A549 [9] = experiment: Growth inhibition of human A549 cells at 1 mM by inverted microscopic method; type: functional, cell-based
Substance-P receptor [10] = molecular target: T1, Substance-P receptor; experiment: Antagonist activity at His6-tagged NK1 receptor (unknown origin) expressed in CHO cells assessed as inhibition of substance-P-induced IP1 accumulation preincubated for 10 mins followed by substance-P addition measured after 30 mins by HTRF-FRET assay
Substance-P receptor [11] = molecular target: T1, Substance-P receptor; details: CHO, 10^-7 M
Description: Antagonist activity at His6-tagged NK1 receptor (unknown origin) expressed in CHO cells assessed as inhibition of substance-P-induced IP1 accumulation at 10^-7 M preincubated for 10 mins followed by substance-P addition measured after 30 mins by HTRF-FRET assay relative to control

A549 [12] = experiment: Cytotoxicity against human A549 cells assessed as cell viability at 320 uM after 48 hrs by MTT assay relative to control; type: functional; details: A549, 48 h, read-out: Activity
[13] = Cytotoxicity against human MRC5 cells assessed as cell viability at 320 uM after 48 hrs by MTT assay relative to control; type: cell-based; details: read-out: Activity
Substance-P receptor [14] = molecular target: T1, Substance-P receptor; experiment: Partial agonist activity at His6-tagged NK1 receptor (unknown origin) expressed in CHO cells assessed as IP1 accumulation measured after 30 mins by HTRF-FRET assay; type: functional, cell-based
MRC5 [15] = experiment: Cytotoxicity against human MRC5 cells assessed as cell death at greater than cytotoxic IC50 after 48 hrs by MTT assay relative to control; type: cell-based; details: mrc5, 48 h
A549 [16] = experiment: Cytotoxicity against human A549 cells assessed as cell death at greater than antiproliferative IC50 after 48 hrs by MTT assay relative to control; type: functional

T1 sequence (P25103 whole entry): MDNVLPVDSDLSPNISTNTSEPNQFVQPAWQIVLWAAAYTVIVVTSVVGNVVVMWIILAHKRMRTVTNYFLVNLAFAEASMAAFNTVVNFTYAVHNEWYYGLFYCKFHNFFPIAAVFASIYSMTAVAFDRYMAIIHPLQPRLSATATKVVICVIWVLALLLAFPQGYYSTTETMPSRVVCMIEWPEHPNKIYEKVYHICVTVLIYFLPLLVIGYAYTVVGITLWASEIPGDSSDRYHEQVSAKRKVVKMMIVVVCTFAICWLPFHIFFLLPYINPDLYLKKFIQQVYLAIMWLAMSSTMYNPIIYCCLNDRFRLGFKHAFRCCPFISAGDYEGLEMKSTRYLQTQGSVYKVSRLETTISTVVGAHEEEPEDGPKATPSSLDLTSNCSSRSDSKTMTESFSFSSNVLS

inhibition (Substance-P receptor [1]) [%] | inhibition (Substance-P receptor [3]) [%] | Compound | further results
11.1 | – | COc1ccc(C2C(C#N)=C(N)OC(c3ccccn3)=C2[S+]([O-])c2ccccc2)cc1 (racemic) | –
38.1 | – | Cc1ccc(C2C(C#N)=C(N)OC(c3ccccn3)=C2[S+]([O-])c2ccc([N+](=O)[O-])cc2)cc1 (racemic) | –
28.9 | 30 | Cc1ccc([S+]([O-])C2=C(c3ccccn3)OC(N)=C(C#N)C2c2ccc([N+](=O)[O-])cc2)cc1 (racemic) | –
68.5 | 45.5 | N#CC1=C(N)OC(c2ccccn2)=C(S(=O)(=O)c2ccccc2)C1c1ccc([N+](=O)[O-])cc1 (racemic) | IC50 (A549 [2]): 148 µM; IC50 (MRC5 [6]): 140 µM; IC50 (Substance-P receptor [10]): 200 µM
50.8 | 37 | Cc1ccc([C@@H]2C(C#N)=C(N)OC(c3ccccn3)=C2[S@@+]([O-])c2ccc(C)cc2)cc1 | –
56.1 | 35.6 | N#CC1=C(N)OC(c2ccccn2)=C([S+]([O-])c2ccc([N+](=O)[O-])cc2)C1c1ccc([N+](=O)[O-])cc1 (racemic) | IC50 (A549 [2]): 536 µM; IC50 (MRC5 [6]): 825 µM
45.9 | 33.5 | N#CC1=C(N)OC(c2ccccn2)=C([S+]([O-])c2ccccc2)C1c1ccc([N+](=O)[O-])cc1 (racemic) | –
49.7 | 43.3 | Cc1ccc([S@+]([O-])C2=C(c3ccccn3)OC(N)=C(C#N)[C@H]2c2ccc([N+](=O)[O-])cc2)cc1 | –
2.51 | – | Cc1ccc([S+]([O-])C2=C(c3ccccn3)OC(N)=C(C#N)C2c2ccc(F)cc2)cc1 (racemic) | –
21 | 30 | Cc1ccc([S@+]([O-])C2=C(c3ccccn3)OC(N)=C(C#N)[C@H]2c2ccc(Cl)cc2)cc1 | –
56.6 | – | N#CC1=C(N)OC(c2ccccn2)=C([S+]([O-])c2ccc([N+](=O)[O-])cc2)C1c1ccccc1 (racemic) | –
20.6 | 18.5 | Cc1ccc([S@@+]([O-])C2=C(c3ccccn3)OC(N)=C(C#N)[C@@H]2c2ccc([N+](=O)[O-])cc2)cc1 | –
20.9 | 28.8 | Cc1ccc([S@@+]([O-])C2=C(c3ccccn3)OC(N)=C(C#N)[C@@H]2c2ccccc2)cc1 | IC50 (A549 [2]): 196 µM; IC50 (MRC5 [6]): 425 µM
32.2 | – | N#CC1=C(N)OC(c2ccccn2)=C([S+]([O-])c2ccc([N+](=O)[O-])cc2)C1c1ccc(Cl)cc1 (racemic) | –
24.4 | 35 | Cc1ccc([S+]([O-])C2=C(c3ccccn3)OC(N)=C(C#N)C2c2ccccc2)cc1 (racemic) | –
11.2 | – | Cc1ccc([S@@+]([O-])C2=C(c3ccccn3)OC(N)=C(C#N)[C@@H]2c2ccc(F)cc2)cc1 | –
23.7 | 37.5 | Cc1ccc([C@H]2C(C#N)=C(N)OC(c3ccccn3)=C2[S@+]([O-])c2ccc(C)cc2)cc1 | –
19.8 | 32 | N#CC1=C(N)OC(c2ccccn2)=C([S+]([O-])c2ccccc2)C1c1ccccc1 (racemic) | –
5.8 | – | Cc1ccc([S@@+]([O-])C2=C(c3ccccn3)OC(N)=C(C#N)[C@@H]2c2ccc(Cl)cc2)cc1 | –

Second part, the molecule before the results:

Compound | inhibition (Substance-P receptor [1]) [%] | inhibition (Substance-P receptor [3]) [%] | further results
CC(=O)NC1=C(C#N)[C@@H](c2ccc(C)cc2)C([S@@+]([O-])c2ccc(C)cc2)=C(c2ccccn2)O1 | 47.2 | 33.3 | IC50 (A549 [2]): 108 µM; Activity (Substance-P receptor [4]): 19.8%; Activity (Substance-P receptor [5]): 30.4%; IC50 (MRC5 [6]): 136 µM
Cc1ccc(SC2=C(c3ccccn3)OC(NC(=O)C(F)(F)F)=C(C#N)[C@H]2c2ccccc2)cc1 | 36.8 | 6.93 | Activity (Substance-P receptor [4]): 13.5%; Activity (Substance-P receptor [5]): 34.2%
Cc1ccc(C2C(C#N)=C(N)OC(c3ccccn3)=C2[S+]([O-])c2ccc(C)cc2)cc1 (racemic) | 32.2 | 32.8 | –
Cc1ccc([S+]([O-])C2=C(c3ccccn3)OC(N)=C(C#N)C2c2ccc(Cl)cc2)cc1 (racemic) | 15.8 | 13.9 | –
Cc1ccc([S@+]([O-])C2=C(c3ccccn3)OC(N)=C(C#N)[C@H]2c2ccc(F)cc2)cc1 | 21 | – | –
COc1ccc([C@H]2C(C#N)=C(N)OC(c3ccccn3)=C2[S@+]([O-])c2ccc(C)cc2)cc1 | 28.1 | -4.43 | IC50 (A549 [2]): 508 µM; growth inhibition (GI) (A549 [7]): 100%; inhibition at 48 h, 1000 uM [8]: 30%; growth inhibition (GI) (A549 [9]): Active
Cc1ccc([S+]([O-])C2=C(c3ccco3)OC(N)=C(C#N)C2c2ccc(Cl)cc2)cc1 (racemic) | 12.5 | – | –
COc1ccccc1CN[C@H]1C2CCN(CC2)[C@H]1C(c1ccccc1)c1ccccc1 [CP-96345] | – | – | IC50 (A549 [2]): 46.8 µM; inhibition (Substance-P receptor [11]): 85.3%; IC50 (MRC5 [6]): 57.9 µM
Cc1ccc([S@+]([O-])C2=C(c3ccccn3)OC(N)=C(C#N)[C@H]2c2cc(C(F)(F)F)cc(C(F)(F)F)c2)cc1 | 28.6 | 30 | –
Cc1ccc(C2C(C#N)=C(N)OC(c3cc(C(F)(F)F)cc(C(F)(F)F)c3)=C2[S+]([O-])c2ccc(C)cc2)cc1 (racemic) | 11.5 | – | –
CC(=O)NC1=C(C#N)[C@H](c2ccc(C)cc2)C([S@+]([O-])c2ccc(C)cc2)=C(c2ccccn2)O1 | 37.1 | 21.4 | Activity (Substance-P receptor [5]): 30.4%
COc1ccc([C@@H]2C(C#N)=C(N)OC(c3ccccn3)=C2[S@@+]([O-])c2ccc(C)cc2)cc1 | 43.9 | 34.5 | viability at 320 µM (A549 [12]): 7%; IC50 (A549 [2]): 156 µM; IC50 (MRC5 [6]): 430 µM; viability at 48 h, 320 µM [13]: 70%
Cc1ccc(SC2=C(c3ccccn3)OC(NC(=O)C(F)(F)F)=C(C#N)[C@H]2c2ccc([N+](=O)[O-])cc2)cc1 | 23.8 | – | Activity (Substance-P receptor [4]): 25.9%; Activity (Substance-P receptor [5]): 62.3%; EC50 (Substance-P receptor [14]): 350 µM
Cc1ccc([S@+]([O-])C2=C(c3ccccn3)OC(N)=C(C#N)[C@H]2c2ccccc2)cc1 | 51.1 | 42 | IC50 (A549 [2]): 172 µM; Activity (MRC5 [15]): < 30%; IC50 (MRC5 [6]): 132 µM; Activity (A549 [16]): <=80%
CC(O)C(=O)O (configuration not stated) [LACTIC ACID] | – | – | IC50 (A549 [2]): 26.6 µM; IC50 (MRC5 [6]): 23.9 µM
